“And” between values parts separate entries of the source, which are not always exact repeats. Identical values can stand only once. “Also recorded” adds a separate entry of the source. Blank lines part the entries; values can stand above or below the molecule they belong to.
Tests used:
hPARP-1 = target: T1, hPARP-1 (Homo sapiens, UniProt P09874); test: hPARP-1 enzyme assay (NAD+ cycling reaction, resorufin fluorescence read-out); assay type: biochemical; conditions: for IC50: 0.1-50 µM, mean ± SD, two biological replicates; for inhibition at 10 µM: concentration of 10 µM; for decline in PARPi activity compared with compound 54: replacement of the fluoride group; for reduction in the PARPi activity compared with compound 57: modification at the thiomethyl group; for PARPi activity at the enzyme level compared to the OLP core structure phthalazin-1(2H)-one: own IC50 vs literature IC50 12 µM
T1 construct: purchased Bio-Techne (Minneapolis, MN, USA)
T1 sequence (P09874 whole entry): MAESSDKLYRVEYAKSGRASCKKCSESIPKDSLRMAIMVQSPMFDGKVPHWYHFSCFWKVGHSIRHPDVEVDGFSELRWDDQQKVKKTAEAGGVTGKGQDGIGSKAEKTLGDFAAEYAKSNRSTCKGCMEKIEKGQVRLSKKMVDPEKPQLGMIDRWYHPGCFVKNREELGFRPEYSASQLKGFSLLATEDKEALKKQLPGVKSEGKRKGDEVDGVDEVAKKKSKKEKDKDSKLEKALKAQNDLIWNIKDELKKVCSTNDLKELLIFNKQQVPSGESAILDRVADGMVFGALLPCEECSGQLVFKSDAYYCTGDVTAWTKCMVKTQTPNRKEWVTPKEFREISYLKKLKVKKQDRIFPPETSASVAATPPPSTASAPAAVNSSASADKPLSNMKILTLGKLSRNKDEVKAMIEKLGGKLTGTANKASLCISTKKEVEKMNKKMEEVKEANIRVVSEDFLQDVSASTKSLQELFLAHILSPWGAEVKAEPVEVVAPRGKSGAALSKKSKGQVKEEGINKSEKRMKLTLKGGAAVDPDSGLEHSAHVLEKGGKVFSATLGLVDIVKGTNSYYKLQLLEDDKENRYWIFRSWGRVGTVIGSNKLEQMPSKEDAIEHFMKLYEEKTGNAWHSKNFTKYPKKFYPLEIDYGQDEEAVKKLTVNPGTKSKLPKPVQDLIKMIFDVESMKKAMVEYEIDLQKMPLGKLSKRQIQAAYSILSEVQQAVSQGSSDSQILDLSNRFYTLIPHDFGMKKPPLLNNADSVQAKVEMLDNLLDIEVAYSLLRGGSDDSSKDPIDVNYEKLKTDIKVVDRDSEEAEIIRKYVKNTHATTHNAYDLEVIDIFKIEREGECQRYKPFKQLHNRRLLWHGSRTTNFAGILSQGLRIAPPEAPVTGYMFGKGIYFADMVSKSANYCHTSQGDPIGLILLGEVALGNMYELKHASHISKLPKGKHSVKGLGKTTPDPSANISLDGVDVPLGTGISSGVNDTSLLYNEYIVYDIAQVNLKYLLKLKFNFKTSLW
Procedure: The putative PARP inhibitors, which were pre-selected in the in silico study, were subsequently evaluated by using an optimized biochemical hPARP-1 enzyme assay. The experiment was performed in black half-area 96-well plates. For the PARP reaction, 12.5 µL of PARP reaction solution were added. The solution was composed of 0.5 µg deoxyribonucleic acid (DNA) sodium salt from calf thymus, 2 U of recombinant hPARP-1, and 1 µL of the compound of interest in PARP reaction buffer (50 mM TRIS and 2 mM MgCl2 in ddH2O, pH = 8). These test compounds’ working solutions were prepared from 20 mM DMSO stock solutions and diluted using PARP reaction buffer to reach 25× of the required final concentration to be tested. […] Afterwards, 12.5 µL of NAD^+ solution were added to all wells to reach a final NAD^+ concentration of 50 nM, and to start the enzyme reaction.
Besides PARP reaction wells, NAD^+ calibration wells were included to measure the linearity of the detection of NAD^+ concentrations. In each well, 12.5 µL of NAD^+ calibration solution were added. The solution was composed of 0.5 µg deoxyribonucleic acid (DNA) sodium salt from calf thymus in PARP reaction buffer. Finally, 12.5 µL of decreasing concentrations of NAD^+ solution were added to the calibration wells (final concentrations: 50, 40, 30, 20, 10, 0 nM).
Subsequently, the assay plate including both the PARP reaction and NAD^+ calibration wells was gently shaken and incubated at 25 °C in the dark for 90 min. After incubation, 25 µL of detection solution were added to each well. […] The assay plate was again gently shaken and incubated at 25 °C in the dark for 40 min.
Following the aforementioned protocol, the compounds that were predicted by the in silico study as putative hPARP-1 inhibitors were tested at two different concentrations (1 and 10 µM). […] The IC50s were calculated by using GraphPad Prism software and a non-linear four-parametric regression function.

184B5 cells = test: crystal violet (CV) cell viability assay, single and combined with TMZ; assay type: cell-based; conditions: Homo sapiens, 184B5, 72 h; read-out: IC50 of TMZ, alone or combined
Procedure: (§1) Cells were seeded in 96-well cell culture plates and were allowed to adhere for 24 h in a humidified atmosphere with 5% CO2 at 37 °C. Afterward, cells were treated with the test items at several concentrations for 72 h. […] After finalization of the intended 72 h treatment, the treatment solutions were discarded, and the cells were washed once with PBS. Subsequently, the cells were fixed by incubation in 4% (v/v) paraformaldehyde in PBS for 15 min at room temperature (RT). The fixing solution was discarded, and the cells were allowed to dry at RT for 15 min. The cells were stained with 0.1% (w/v) crystal violet in PBS for 15 min at RT, then washed with ddH2O and dried overnight at RT. […] The obtained absorbance data were normalized based on the negative and positive controls representing 100% and 0% cell viability, respectively. IC50 values were calculated by using a four-parametric non-linear regression analysis in GraphPad Prism software.
(§2) Finally, cell viability was determined by using the CV assay, and IC50 values were calculated as mentioned above.

BT-474 cells = test: as above; assay type: cell-based
Procedure: as §1, §2

HCC1937 cells = test: as above; assay type: cell-based; conditions: Homo sapiens, HCC1937, 72 h; read-out: IC50 of TMZ, alone or combined
Procedure: as §1, §2

MCF-7 cells = test: as above; assay type: cell-based; conditions: Homo sapiens, MCF7, 72 h; read-out: IC50 of TMZ, alone or combined
Procedure: as §1, §2

MDA-MB-468 cells = test: cells; assay type: cell-based; conditions: for cytotoxic activity as a monotherapy against MDA-MB-468: CV assay
Procedure: as §1, §2

hPARP-1 in BT-474 cells = target: T2, hPARP-1 in BT-474 cells (Homo sapiens, UniProt P09874); test: fluorescence microscopy, competitive displacement of PARPi-FL; assay type: cell-based; conditions: BT-474, 72 h with 100 µM compound 57 or 1.56 µM OLP, then 250 nM PARPi-FL 20 min
T2 construct: endogenous in cells; host or cells: BT-474
T2 sequence (P09874 whole entry): as above
Procedure: For the determination of the interaction of the proposed PARPi and the PARP binding pocket inside the treated cells, a fluorescence microscopic inspection was performed. Using a green fluorescently labeled molecule named PARPi-FL that is characterized by the ability to occupy specifically the binding pocket of the PARP enzyme. Moreover, in case of its competitive replacement by PARPi molecules a reduction in its fluorescent signal is detectable. Thus, cells were seeded in 6-well plates and incubated in a humidified atmosphere with 5% CO2 for 24 h at 37 °C. […] Subsequently, the treatment solutions were discarded, and the cells were washed with PBS. […] Finally, cells were imaged by using the GFP channel of an EVOS™ FL Auto Imaging System (Thermo Fisher Scientific, Waltham, MA, USA).

- IC50 (hPARP-1): 4.57 ± 4.89 µM
- inhibition at 10 µM (hPARP-1): > 50%
SMILES: O=c1[nH]nc(CNc2ccc([N+](=O)[O-])cc2)c2ccccc12 [Compound 22]

- IC50 (hPARP-1): 14.9 ± 4.92 µM
- inhibition at 10 µM (hPARP-1): > 50%
- decline in PARPi activity compared with compound 54 (hPARP-1): at least three-fold
SMILES: COc1ccc(C(=O)Nc2nc3c(c(=O)[nH]2)CCCC3)cc1 [Compound 21]

- IC50 (hPARP-1): > 10 µM
- reduction in the PARPi activity compared with compound 57 (hPARP-1): at least four-fold
SMILES: C#CCSc1nc2ccccc2c(=O)[nH]1 [Compound 68]

- hPARP-1 inhibitor activity compared with compound 57 (SAR, in words) (hPARP-1): dramatic decrease in activity
- IC50 (hPARP-1): > 10 µM
SMILES: CSc1nc2ccc([N+](=O)[O-])cc2c(=O)[nH]1 [Compound 65]

- IC50 (hPARP-1): > 10 µM
- reduction in the PARPi activity compared with compound 57 (hPARP-1): at least four-fold
SMILES: C=CCSc1nc2ccccc2c(=O)[nH]1 [Compound 67]

- decline in PARPi activity compared with compound 54 (hPARP-1): at least three-fold
SMILES: O=C(Nc1nc2c(c(=O)[nH]1)CCCC2)c1ccc(Cl)cc1 [Compound 32]

- IC50 (hPARP-1): > 10 µM
SMILES: CSc1nc2ccccc2c(=O)n1C [Compound 62]
- hPARP-1 inhibitor activity compared with compound 57 (SAR, in words) (hPARP-1): complete abolishment of hPARP-1 inhibitor activity

- IC50 (hPARP-1): > 10 µM
- reduction in the PARPi activity compared with compound 57 (hPARP-1): at least four-fold
SMILES: O=c1[nH]c(SCCC(F)=C(F)F)nc2ccccc12 [Compound 69]

- IC50 (hPARP-1): > 10 µM
SMILES: CSc1nc2ccccc2c(=O)n1Cc1ccccc1 [Compound 63]
- hPARP-1 inhibitor activity compared with compound 57 (SAR, in words) (hPARP-1): complete abolishment of hPARP-1 inhibitor activity

- hPARP-1 inhibitor activity compared with compound 57 (SAR, in words) (hPARP-1): dramatic decrease in activity
- IC50 (hPARP-1): > 10 µM
SMILES: CSc1nc2cc([N+](=O)[O-])ccc2c(=O)[nH]1 [Compound 66]

- IC50 (hPARP-1): 4.56 µM
- inhibition at 10 µM (hPARP-1): > 50%
- PARPi activity at the enzyme level compared to the OLP core structure phthalazin-1(2H)-one (hPARP-1): two-fold higher
SMILES: O=C(Nc1nc2c(c(=O)[nH]1)CCCC2)c1ccc(F)cc1 [Compound 54]

- IC50 (BT-474 cells; Homo sapiens, BT-474, 72 h, read-out: IC50 of TMZ, alone or combined): 2210 ± 10 µM
- IC50 (HCC1937 cells): 3740 ± 1500 µM
- IC50 (MCF-7 cells): 3440 ± 1720 µM
- IC50 (MDA-MB-468 cells; Homo sapiens, MDA-MB-468, 72 h, read-out: IC50 of TMZ, alone or combined): 2060 ± 790 µM
SMILES: Cn1nnc2c(C(N)=O)ncn2c1=O [TMZ, temozolomide]
- IC50 (184B5 cells): 980 ± 820 µM

- IC50 (hPARP-1): 6.61 ± 2.09 µM
- inhibition at 10 µM (hPARP-1): > 50%
SMILES: O=c1[nH]nc(-c2ccccc2)c2ccccc12 [Compound 56]

SMILES: O=C(c1cc(Cc2n[nH]c(=O)c3ccccc23)ccc1F)N1CCN(C(=O)C2CC2)CC1 [OLP, olaparib]
- cytotoxic activity as a monotherapy against MDA-MB-468 (MDA-MB-468 cells; 72 h): good and selective cytotoxic activity
- IC10 (CV cytotoxicity assay) (MDA-MB-468 cells; MDA-MB-468 cells, 72 h): 1.56 µM

- IC50 (hPARP-1): 3.01 ± 1.19 µM
- inhibition at 10 µM (hPARP-1): > 50%
SMILES: COc1ccc(NCc2nnc(O)c3ccccc23)cc1 [Compound 45]

- hPARP-1 inhibitor activity compared with compound 57 (SAR, in words) (hPARP-1): dramatic decrease in activity
- IC50 (hPARP-1): > 10 µM
SMILES: COc1cc2nc(SC)[nH]c(=O)c2cc1OC [Compound 64]

- IC50 (hPARP-1): 4.86 ± 0.63 µM
- inhibition at 10 µM (hPARP-1): > 50%
SMILES: N#CCc1n[nH]c(=O)c2ccccc12 [Compound 58]

- IC50 (hPARP-1): 2.3 µM and 2.32 µM
- inhibition at 10 µM (hPARP-1): > 50%
- fold higher hPARP-1-inhibiting activity compared to core structure quinazolin-4(3H)-one (hPARP-1; own IC50 vs literature IC50 5.8 µM): 2.5 fold
- PARPi activity at the enzyme level compared to the OLP core structure phthalazin-1(2H)-one (hPARP-1): five-fold higher
SMILES: CSc1nc2ccccc2c(=O)[nH]1 [Compound 57, 2-(methylthio)quinazolin-4(3H)-one]
- displacement of PARPi-FL from nuclear hPARP-1 (fluorescence) (hPARP-1 in BT-474 cells): failed to reach the nuclei of BT-474 cells; also recorded: did not impact the fluorescent appearance of the stain
- IC10 (CV cytotoxicity assay) (BT-474 cells; BT-474 cells, 72 h): 100 µM
- cytotoxic activity as a monotherapy against MDA-MB-468 (MDA-MB-468 cells; 72 h): such an effect was not observed
- synergistic improvement of the TMZ activity by co-treatment (MDA-MB-468 cells; co-treatment at IC10 (100 µM compound 57), 72 h): did not induce a synergistic improvement

- IC50 (hPARP-1): 23.5 ± 8.74 µM
- inhibition at 10 µM (hPARP-1): > 50%
SMILES: COc1cccc(Nc2nc3ccccc3c(=O)[nH]2)c1 [Compound 18]

- decline in PARPi activity compared with compound 54 (hPARP-1): at least three-fold
SMILES: Cc1ccc(C(=O)Nc2nc3c(c(=O)[nH]2)CCCC3)cc1 [Compound 34]

From paper PMC12250713, “Identification and Characterization of Novel Inhibitors of Human Poly(ADP-Ribose) Polymerase-1” (Molecules, 2025)
